This note sets out measurements from publication PMC11899342, “Novel Triazeneindole Antibiotics: Synthesis and Hit-to-Lead Optimization” (International Journal of Molecular Sciences, 2025).

Data set [1] concerns human embryonic fibroblasts (HEFs). As to the kind of experiment: MTT cytotoxicity on human embryonic fibroblasts. The format is cell-based. To be noted: Homo sapiens, Fibroblast, 24 h, ND = non-toxic in tested concentrations (up to 50 mg/L). As to the method:
(§1) The primary screening of 22 substances was performed on human embryonic fibroblasts (HEFs). […] The HepG2 cell line was obtained from the American Type Culture Collection (ATCC cat. # HB-8065). The primary HEF cells (normal human embryonic fibroblasts) were derived from human embryonic stem cells. The cells were cultured in DMEM/F12 (1:1) medium containing 10% fetal bovine serum (Invitrogen, Carlsbad, CA, USA) at 37 °C and 5% CO2, according to standard mammalian tissue culture protocols and sterile technique. […] The incubation time with the substance was 24 h for all substances and cell lines. Cell detachment by trypsin, centrifugation, and counting in a hemocytometer were performed 16 h before the addition of the substance. For correct counting of the HepG2 cells, the cell suspension was passed through a syringe needle to get rid of cell aggregates. The cells were placed in the wells of a 96-well plate. The number of cells was selected according to the properties of the cell line and the final optical density in the experiment. Fibroblasts and hepatocytes were used in the amount of 10 thousand cells per well in 100 μL of DMEM/F12 medium supplemented with 10% fetal bovine serum. The substances were added to 100 µL of medium in the wells so that the final concentrations were 50, 25, 12.5, 6.25, 3.125, and 1.62 mg/L. The final well volume was 200 µL. The medium containing fetal bovine serum, without added substances, was used as a negative control. After 24 h, excessive amounts of medium were discarded. A total of 30 µL of MTT solution (5 mg/mL in PBS) was added to each well. After the precipitation of formazan crystals (3 h incubation), they were dissolved using 100 μL of dimethyl sulfoxide. The optical density (OD) was measured at 570 nm using a microplate reader (Eppendorf). For every condition, the cell viabilities were assessed in at least three independent experiments for every cell culture. Cell survival was calculated using the following formula:(OD of treated cells − OD blank)/(OD of control cells − OD blank) × 100%, where OD blank represents the OD values in wells without cells but with the addition of the MTT and DMSO solutions. The results were presented in the form of cytotoxicity curves, and the graphs were also plotted in a Microsoft Excel program; the calculation of the IC50 half-maximal inhibition concentration values was performed in a GraphPad Prism 6.0 (GraphPad Software Inc., San Diego, CA, USA) program, based on the equations of the cytotoxicity curves.

Data set [2] in a line: Solubility in water by HPLC. It is filed as physicochemical. To be noted: water, kinetic from dmso stock. As to the method: The solubility of the compounds in water was assessed using HPLC analysis. Two 1.0 mg portions of the test compounds were dissolved in 10 μL of dimethyl sulfoxide; 1.0 mL of acetonitrile was added to one sample (standard), and 1.0 mL of water was added to the second sample (tested sample). Both vials were mixed in a shaker for 5 min, then centrifuged at 10,000 rpm for 5 min. The supernatants were collected and analyzed using Agilent 1290 Infinity (Agilent Technologies, Santa Clara, CA, USA) with a YMC-Triart C18 50 × 2.0 mm, 1.9 μm column. The concentration of the test compound in water was determined by comparing the peak areas of the standard (concentration 1.0 mg/mL) and the tested sample.

The next data set concerns MRSA. As to the kind of experiment: Selectivity index (average IC50 on eukaryotic cells / average MIC on MRSA). The format is cell-based, Staphylococcus aureus. As to conditions: average IC50 on eukaryotic cells divided by average MIC on MRSA. As to the method:
The selectivity index was calculated for each compound as the average IC50 on eukaryotic cells divided by the average MIC on MRSA (Table 2).

The test system of data set [3] is HepG2 human liver carcinoma cells. As to the kind of experiment: MTT cytotoxicity (hepatotoxicity) on HepG2. It is filed as cell-based. As to conditions: Homo sapiens, HepG2, 24 h. As to the method:
as §1

A further data set relates to MRSA clinical isolates. The data set can be described thus: MIC by broth microdilution against multidrug-resistant MRSA clinical isolates. It is filed as cell-based, Staphylococcus aureus. As to conditions: for MIC Range Against 8 MRSA Strains: 8 multidrug-resistant MRSA clinical isolates, tested 0.125-1 mg/L; for MIC: Staphylococcus aureus, MRSA. As to the method:
Clinical MRSA isolates with multidrug resistance were obtained from the collection of the Research Institute of Antimicrobial Chemotherapy, Smolensk State Medical Academy.
The MICs were determined using a broth microdilution method according to [42]. Briefly, serial dilutions of the tested compounds in 50 µL of Mueller Hinton broth (BD) were prepared in 96-well microplates. The antibiotics vancomycin and linezolid (Sigma-Aldrich, St. Louis, MO, USA) were used as a positive control. Bacterial suspensions of the tested MRSA strains were prepared in the Mueller Hinton broth (BD) with a concentration 1 × 10^6 CFU/mL, and then 50 µL aliquots were added to the prepared microplates. The final concentrations of the antibiotics in the wells were 1, 0.5, 0.25, and 0.125 mg/L, for the tested compounds, and 2 mg/L for vancomycin and linezolid. Negative control (lack of bacterial cells) and growth control (lack of compound) wells were included in all plates. The microplates were incubated at 37 °C for 18 h. The growth was assessed visually after incubation, and the MIC was assumed as the lowest compound concentration at which a noticeable growth of the microorganisms was inhibited (no visible growth). All experiments were conducted in triplicate.
In general terms: Dilution methods test growth across graded concentrations, often in twofold steps.

The target in the next data set is T1, cytochrome P450 2C8 (Homo sapiens, UniProt P10632).
T1 construct: was investigated using human liver microsomes (XenoTech, USA); tissue XenoTech; host or cells: human liver microsomes
T1 sequence (P10632 1-490): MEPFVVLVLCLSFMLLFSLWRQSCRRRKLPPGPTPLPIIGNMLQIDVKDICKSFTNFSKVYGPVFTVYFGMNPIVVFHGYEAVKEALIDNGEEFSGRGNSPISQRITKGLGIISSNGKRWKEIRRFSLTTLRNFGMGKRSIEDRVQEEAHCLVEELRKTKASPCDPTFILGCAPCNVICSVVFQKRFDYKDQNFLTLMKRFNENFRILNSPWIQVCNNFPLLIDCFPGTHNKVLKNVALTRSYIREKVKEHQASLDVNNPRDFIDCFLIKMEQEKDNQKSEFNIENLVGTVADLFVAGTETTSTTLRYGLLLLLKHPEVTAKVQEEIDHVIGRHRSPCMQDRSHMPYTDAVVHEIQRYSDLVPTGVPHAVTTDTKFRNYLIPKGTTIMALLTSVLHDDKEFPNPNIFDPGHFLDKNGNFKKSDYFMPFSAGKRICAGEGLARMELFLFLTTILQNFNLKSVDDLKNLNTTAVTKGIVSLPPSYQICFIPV
The data set can be described thus: Inhibition of cytochrome P450 isoform activity in human liver microsomes. The format is in vitro ADME. As to conditions: N/A: no inhibition, tested 0.0046–10 μM. As to the method: The effect of the tested compound on the activity of the main isoforms of human liver cytochrome P450 (1A2, 2C9, 2C19, 2D6, 3A4, 2C8) was investigated using human liver microsomes (XenoTech, USA) and their corresponding substrates: phenacetin, testosterone, tolbutamide, S-mephenytoin, dextromethorphan hydrobromide, and amodiaquine dihydrochloride dihydrate (Sigma-Aldrich, USA).
[…]. The reaction was stopped after 20 min by adding acetonitrile. The resulting metabolites were detected using UPLC–MS/MS. The calculation of the IC50 half-maximal inhibition concentration values was performed in the GraphPad Prism 6.0 (GraphPad Software Inc., USA) program, based on the equations of the experimental curves.
In general terms: Liver microsomes are vesicles of endoplasmic reticulum, rich in cytochrome P450 enzymes.

Setting [4] is: read-out: Solubility in water, mass concentration.
Where [5] appears, read: read-out: Solubility in water, molar concentration.
Where [6] appears, read: Figure 6, MRSA strain 2, read-out: MIC against 8 MRSA strains.
Where [7] appears, read: Figure 6, MRSA strain 7, read-out: MIC against 8 MRSA strains.
Setting [8] is: Figure 6, MRSA strain 8, read-out: MIC against 8 MRSA strains.
[9] abbreviates: Figure 6, MRSA strain 9, read-out: MIC against 8 MRSA strains.
Where [10] appears, read: Figure 6, MRSA strain 13, read-out: MIC against 8 MRSA strains.
The mark [11] stands for this setting: Figure 6, MRSA strain 21, read-out: MIC against 8 MRSA strains.
Where [12] appears, read: Figure 6, MRSA strain 48, read-out: MIC against 8 MRSA strains.
The mark [13] stands for this setting: Figure 6, MRSA strain 50, read-out: MIC against 8 MRSA strains.

Converted amounts (≈) assume the structure as drawn. Read-outs that look alike come from different tables or passages of the source.

In the case of `CCOC(=O)c1[nH]c2cc(F)ccc2c1/N=N/N1CCC(C)CC1` [BX-SI045, Ethyl (E)-6-fluoro-3-((4-methylpiperidin-1-yl)diazenyl)-1H-indole-2-carboxylate], the figures for the IC50 in data set [1] and in data set [3] were 29 µg/mL (≈ 87.2 µM) and 22 µg/mL (≈ 66.2 µM), respectively. In addition, the figures for the solubility at 5 min in data set [2] (setting [4]) and in data set [2] (setting [5]) were 2.77 µg/mL and 10 µM, respectively. In addition, the “Selectivity Index” value in the data set with MRSA worked out at 74. Also, the “MIC Range Against 8 MRSA Strains” value in the data set with MRSA clinical isolates was 0.25 to 0.5 µg/mL. The MIC (usually the lowest concentration that inhibits growth of the organism) with MRSA clinical isolates (8 MRSA strains, read-out: lowest MIC values against most tested strains) was 0.25 µg/mL (≈ 0.752 µM); in the data set with MRSA clinical isolates (setting [6]) it was 0.5 µg/mL (≈ 1.5 µM); with MRSA clinical isolates (setting [7]), 0.5 µg/mL (≈ 1.5 µM); in the data set on MRSA clinical isolates (setting [8]), 0.25 µg/mL (≈ 0.752 µM); in the data set on MRSA clinical isolates (setting [9]), 0.25 µg/mL (≈ 0.752 µM); in the data set with MRSA clinical isolates (setting [10]), 0.5 µg/mL (≈ 1.5 µM). In addition, the MIC with MRSA clinical isolates (setting [11]), with MRSA clinical isolates (setting [12]) and in the data set with MRSA clinical isolates (setting [13]) was 0.25 µg/mL (≈ 0.752 µM) each time.

With `CCOC(=O)c1[nH]c2cc(F)ccc2c1/N=N/N(C)CCc1ccccn1` [BX-SI048, Ethyl (E)-6-fluoro-3-(3-methyl-3-(2-(pyridin-2-yl)ethyl)triaz-1-en-1-yl)-1H-indole-2-carboxylate], the IC50 (as a rule, the point on the concentration scale where inhibition reaches its midpoint) stood at 13 µg/mL (≈ 35.2 µM) in data set [1] and 22 µg/mL (≈ 59.6 µM) in data set [3]. The solubility at 5 min in data set [2] (setting [4]) stood at 34.9 µg/mL; in data set [2] (setting [5]), 90 µM. In the data set with MRSA, the “Selectivity Index” value worked out at 28. For the same compound, in the data set on MRSA clinical isolates, the “MIC Range Against 8 MRSA Strains” value was in the range of 0.5 to 1 µg/mL. In addition, the MIC with MRSA clinical isolates (setting [6]) worked out at 1 µg/mL (≈ 2.71 µM); with MRSA clinical isolates (setting [7]), 0.5 µg/mL (≈ 1.35 µM); in the data set with MRSA clinical isolates (setting [8]) it was 0.5 µg/mL (≈ 1.35 µM); in the data set on MRSA clinical isolates (setting [9]), 1 µg/mL (≈ 2.71 µM); with MRSA clinical isolates (setting [10]) it was 0.5 µg/mL (≈ 1.35 µM); in the data set on MRSA clinical isolates (setting [11]) it was 0.5 µg/mL (≈ 1.35 µM). Also, the minimum inhibitory concentration (MIC) in the data set with MRSA clinical isolates (setting [12]) and in the data set with MRSA clinical isolates (setting [13]) was 0.5 µg/mL (≈ 1.35 µM) in each case.

Compound `O=c1c(O)c(-c2ccc(O)c(O)c2)oc2cc(O)cc(O)c12` [Quercetin, quercetin] displayed an IC50 against cytochrome P450 2C8 of 2600 nM.
